Measured values taken from patent publication US20220308068A1, “BIOMARKER IN OSTEOPOROSIS INTERVENTION THERAPY BY BONE PEPTIDE, SCREENING METHOD AND USE THEREOF” (Institute of Food Science and Technology, Chinese Academy …, priority 2019, published 2022).

What was measured:
[1] = tested on: ovariectomized osteoporosis rat model; experiment: serum bone turnover markers by automatic serum biochemical analyzer; assay type: in vivo, SD rats
Method: 1, the construction of ovariectomized rats models: SD rats are kept in a clean environment under a controlled room temperature at 25±2° C. and alternates 12/12 light and dark every day, and the SD rats feed freely. After one week adaptive feeding, randomly select 8 female rats, anesthetize them with 1% (v/v) pentobarbital sodium (40 mg/kg BW), and remove a little fat near ovaries. The remaining 40 rats are ovariectomized after being anesthetized with pentobarbital sodium. The recovery situation is observed in a 4-week recovery period, and their weight changes are detected. These are prepared by the applicant in advance. (any research about metabolic fingerprint changes of ovariectomized osteoporotic rats after intervention with bone peptide have not been reported according to the existing literature). 2, animal grouping and samples collection: the 8 female rats with a little fat near ovaries removed are selected as a sham-operated group, the ovariectomized 40 rats are randomly divided into 5 groups with 8 rats in each group, and are named by a negative control group, a positive control group, a low-concentration treatment group, a medium-concentration treatment group and a high-concentration treatment group. The rats are perfused by different solutions of bovine bone peptide (diluted by ultrapure water, and sterilized) with concentration of 100 mg/kg, 200 mg/kg, and 500 mg/kg according to the weights of the rats. The rats in the negative control group are perfused with equal volume of ultrapure sterile water (a perfusing volume is generally 1-2 mL/100 g BW), and the rats in the positive control group are perfused with 50 μg/kg of 17β-estradiol (ES). Observe weight changes of the rats and measure the weights every two weeks. Urine is automatically collected with a metabolic cage for 12 hours every 4 weeks (the urine is collected as much as possible under the premise of ensuring normal signs of the rats). 1 mmol/L NaN3 solution is added into collected urine as a preservative, the collected urine is placed in a centrifuge at 4° C. and centrifuged at a speed of 10000×g for 10 minutes, and the supernatant is collected, distributed and stored in a refrigerator at −80° C. for determining. The rats are fasted for 12 hours at 4th week, 8th week, and 12th week. Fasted rats are anesthetized by intraperitoneal injection of pentobarbital sodium (40 mg/kg BW) with a volume concentration of 1%, and are subjected to blood collection from the abdominal aorta (the blood is collected as much as possible under the premise of ensuring normal signs of the rats). Collected blood is placed at 4° C. for 3 h and is centrifuged (5000 rpm) for 10 minutes. Upper serum is collected (collecting 2 mL of blood, separating into 4 tubes after separating the serum), is divided into 0.5 mL EP tubes, and stored in a refrigerator at −80° C. for later use. The metabolic cage comprises a cage body with a bottom and a metabolite collecting part. The metabolite collecting part is arranged below the cage body and comprises a barrel 1 and a cover 2 mounted on an upper end of a peripheral wall of a first side of the barrel, an upper end of a peripheral wall of a second side of the barrel is provided with a drainage port, and a solid-liquid separating part is arranged in the barrel. The solid-liquid separating part comprises an arc-shaped partition plate 3 with a first end fixed with a peripheral wall of the barrel and multi-stage filter plates 4, which divide an inner space of the barrel into a first accommodating space and a second accommodating space. The multi-stage filter plates are arranged in the second accommodating space along a vertical direction, and the multi-stage filter plates are successively arranged end to end to form a folded-line diversion channel. A depth of a bottom wall of the barrel from the first side to the second side becomes larger. […]

[2] = tested on: ovariectomized osteoporosis rat model; experiment: three-point bending test of left femurs; assay type: in vivo, SD rats; conditions: left femur; treatment groups and ES group vs Model group
Method: 1, the construction of ovariectomized rats models: SD rats are kept in a clean environment under a controlled room temperature at 25±2° C. and alternates 12/12 light and dark every day, and the SD rats feed freely. After one week adaptive feeding, randomly select 8 female rats, anesthetize them with 1% (v/v) pentobarbital sodium (40 mg/kg BW), and remove a little fat near ovaries. The remaining 40 rats are ovariectomized after being anesthetized with pentobarbital sodium. The recovery situation is observed in a 4-week recovery period, and their weight changes are detected. These are prepared by the applicant in advance. (any research about metabolic fingerprint changes of ovariectomized osteoporotic rats after intervention with bone peptide have not been reported according to the existing literature). 2, animal grouping and samples collection: the 8 female rats with a little fat near ovaries removed are selected as a sham-operated group, the ovariectomized 40 rats are randomly divided into 5 groups with 8 rats in each group, and are named by a negative control group, a positive control group, a low-concentration treatment group, a medium-concentration treatment group and a high-concentration treatment group. […]

[3] = treatment groups and ES group vs Model group
[4] = vs Model group, P<0.05, YBP 100/200/500 mg/kg, ES 50 μg/kg perfused

Compound: C[C@]12CC[C@@H]3c4ccc(O)cc4CC[C@H]3[C@@H]1CC[C@@H]2O [ES, 17β-estradiol]
- content of DPD [1, 3]: on a decline trend
- content of PINP [1, 3]: on a decline trend
- content of S-CTX [1, 3]: on a decline trend
- content of TRAP [1, 3]: on a decline trend
- content of B-ALP (bone alkaline phosphatase) [1, 4]: significantly increased
- content of BGP (bone gamma-carboxyglutamic acid containing proteins) [1, 4]: significantly increased
- elastic load (Ed) [2]: on a rise trend
- fracture load (Fd) [2]: on a rise trend
